Here are results for 6 compounds from US8993574B2, “Pyrrole antifungal agents” (F2G Ltd, priority 2008, dated 2015).

Assay type in all cases: cell-based
Assay [1] deals with Aspergillus flavus. The assay is described as follows: MIC, YAG medium. To be noted: 24 h at 35° C, MIC banded into grades; for MIC: Aspergillus flavus, 24 h, read-out: MIC grade, A. flavus. An outline of the steps:
(§1)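 OD 485 nm read-out after 24 h at 35° C; MIC = lowest concentration inhibiting growth >70% vs drug-free control, in mg/L. Inoculum 1−2×10^4 cfu/mL in YAG medium; drug range 50-0.05 mg/L, retested at 0.5-0.0005 mg/L when needed.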

Assay [2] concerns Aspergillus fumigatus AF210. Description: MIC, YAG medium. Particulars: 24 h at 35° C, MIC banded into grades; for MIC: Aspergillus fumigatus, read-out: MIC grade, A. fumigatus 210. In a few lines: as §1
For assay [3], the system named is Aspergillus fumigatus AF293. The assay is described as follows: MIC, YAG medium. Particulars: 24 h at 35° C, MIC banded into grades; for MIC: Aspergillus fumigatus, read-out: MIC grade, A. fumigatus. An outline of the steps:
as §1

Assay [4] has as its system Aspergillus niger. The assay is described as follows: MIC, YAG medium. To be noted: 24 h at 35° C, MIC banded into grades; for MIC: Aspergillus niger, read-out: MIC grade, A. niger. An outline of the steps: as §1
Assay [5] deals with Aspergillus terreus AT49. The assay is described as follows: MIC, YAG medium. To be noted: 24 h at 35° C, MIC banded into grades; for MIC: Aspergillus terreus, read-out: MIC grade, A. terreus 49. An outline of the steps:
as §1

For assay [6], the system named is Aspergillus terreus AT4. The assay is described as follows: MIC, YAG medium. To be noted: 24 h at 35° C, MIC banded into grades; for MIC: Aspergillus terreus, read-out: MIC grade, A. terreus. In a few lines:
as §1

In assay [7] the test system is Aspergillus flavus. Description: MIC, RPMI medium. Particulars: MIC banded into grades; for MIC: Aspergillus flavus, read-out: MIC grade, A. flavus. An outline of the steps: (§2)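 RPMI (2% glucose, 0.135 M MOPS, pH 7.0) microdilution; drug 50-0.05 mg/L doubling series; inoculum 1−2×10^4 cfu/mL; 24-48 h, 35° C; OD485; MIC = lowest conc. with >80% inhibition vs drug-free control.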

For assay [8], the system named is Aspergillus fumigatus AF210. Description: MIC, RPMI medium. Particulars: for MIC: Aspergillus fumigatus, AF210, MIC banded into grades, read-out: MIC grade, A. fumigatus 210; for MIC grade, A. fumigatus 210: MIC banded into grades. In a few lines: as §2
For assay [9], the system named is Aspergillus fumigatus AF293. The assay is described as follows: MIC, RPMI medium. To be noted: for MIC: Aspergillus fumigatus, AF293, MIC banded into grades, read-out: MIC grade, A. fumigatus; for MIC grade, A. fumigatus: MIC banded into grades. In a few lines: as §2
For assay [10], the system named is Aspergillus niger. Description: MIC, RPMI medium. To be noted: MIC banded into grades; for MIC: Aspergillus niger, read-out: MIC grade, A. niger. An outline of the steps:
as §2

In assay [11] the test system is Aspergillus terreus AT49. The assay is described as follows: MIC, RPMI medium. To be noted: for MIC: Aspergillus terreus, AT49, MIC banded into grades, read-out: MIC grade, A. terreus 49; for MIC grade, A. terreus 49: MIC banded into grades. An outline of the steps: as §2
The test system of assay [12] is Aspergillus terreus AT4. The assay is described as follows: MIC, RPMI medium. Particulars: for MIC: Aspergillus terreus, AT4, MIC banded into grades, read-out: MIC grade, A. terreus; for MIC grade, A. terreus: MIC banded into grades. In a few lines:
as §2

Another assay deals with Candida albicans. Description: MIC, RPMI medium. To be noted: 24-48 h at 35° C., >80% growth inhibition, banded into grades; for MIC: Candida albicans. An outline of the steps: as §2
Another assay deals with Candida glabrata. The assay is described as follows: MIC, RPMI medium. To be noted: 24-48 h at 35° C., >80% growth inhibition, banded into grades; for MIC: Nakaseomyces glabratus. An outline of the steps:
as §2

Another assay concerns Candida krusei. Description: MIC, RPMI medium. Particulars: 24-48 h at 35° C., >80% growth inhibition, banded into grades; for MIC: Pichia kudriavzevii. An outline of the steps:
as §2

The subject of a further assay is Candida parapsilosis. The assay is described as follows: MIC, RPMI medium. Particulars: 24-48 h at 35° C., >80% growth inhibition, banded into grades; for MIC: Lodderomyces parapsilosis. In a few lines:
as §2

Another assay relates to Candida tropicalis. The assay is described as follows: MIC, RPMI medium. Particulars: 24-48 h at 35° C., >80% growth inhibition, banded into grades; for MIC: Candida tropicalis. In a few lines:
as §2

Structures are written as SMILES. In brackets after ≈: the same amount, converted by molar mass. Bounds are passed on as bounds.

With `COCCn1c(C)cc(-c2ccccc2)c1C(=O)C(=O)Nc1ccc(N2CCN(CC(C)(C)C)CC2)cc1F` [Example 113, N-{4-[4-(2,2-Dimethyl-propyl)-piperazin-1-yl]-2-fluoro-phenyl}-2-[1-(2-methoxy-ethyl)-5-methyl-3-phenyl-1H-pyrrol-2-yl]-2-oxo-acetamide], the MIC (with Aspergillus flavus [1]; in assay [2]; in assay [3]; with Aspergillus niger [4]; with Aspergillus terreus AT49 [5]; in the assay on Aspergillus terreus AT4 [6]) was less than 1 µg/mL in each case. The MIC was 1 to 10 µg/mL (≈ 1.87 to 18.7 µM) with Aspergillus flavus [7]; less than 1 µg/mL in [8]; 1 to 10 µg/mL (≈ 1.87 to 18.7 µM) in [9]; less than 1 µg/mL in the assay on Aspergillus niger [10]; 1 to 10 µg/mL (≈ 1.87 to 18.7 µM) with Aspergillus terreus AT49 [11]; less than 1 µg/mL in the assay on Aspergillus terreus AT4 [12]. The minimum inhibitory concentration (MIC) in the assay with Candida albicans, in the assay on Candida glabrata, against Candida krusei, in the assay on Candida parapsilosis and against Candida tropicalis was less than 1 µg/mL in each case.

Turning to `COCCn1ccc(-c2ccccc2)c1C(=O)C(=O)Nc1ccccc1` [Example 81, 2-[1-(2-Methoxy-ethyl)-3-phenyl-1H-pyrrol-2-yl]-2-oxo-N-phenyl-acetamide], the minimum inhibitory concentration (MIC) (in the assay with Aspergillus flavus [1]; in assay [2]; in [3]; with Aspergillus niger [4]; with Aspergillus terreus AT49 [5]; in the assay with Aspergillus terreus AT4 [6]) was greater than 10 µg/mL throughout. The minimal inhibitory concentration (MIC) (with Aspergillus flavus [7]; in [8]; in [9]; with Aspergillus niger [10]; in the assay on Aspergillus terreus AT49 [11]; in the assay with Aspergillus terreus AT4 [12]) was greater than 10 µg/mL in each case. The MIC in the assay with Candida albicans, with Candida glabrata, in the assay on Candida krusei, in the assay with Candida parapsilosis and with Candida tropicalis was less than 1 µg/mL each time.

Take `COC(=O)Cn1ccc(C(C)C)c1C(=O)C(=O)Nc1ccc(N2CCN(c3cc(C)cc(C)n3)CC2)cc1` [Example 88]: the “MIC grade, A. flavus” value against Aspergillus flavus [1] and against Aspergillus flavus [7] was 1 (a grade of 1 represents an MIC of greater than 10 mg/L) in each case. The “MIC grade, A. fumigatus 210” value in [2] and in assay [8] was 3 (A grade of 3 represents an MIC of less than 1 mg/L) each time. Besides, the “MIC grade, A. fumigatus” value in [3] and in [9] was 3 (A grade of 3 represents an MIC of less than 1 mg/L) throughout. Further, the “MIC grade, A. niger” value with Aspergillus niger [4] and against Aspergillus niger [10] was 2 (A grade of 2 represents an MIC of from 1 to 10 mg/L) in each case. Also, the “MIC grade, A. terreus 49” value with Aspergillus terreus AT49 [5] and against Aspergillus terreus AT49 [11] was 1 (a grade of 1 represents an MIC of greater than 10 mg/L) each time. Also, the “MIC grade, A. terreus” value against Aspergillus terreus AT4 [6] is 2 (A grade of 2 represents an MIC of from 1 to 10 mg/L); in the assay on Aspergillus terreus AT4 [12], 1 (a grade of 1 represents an MIC of greater than 10 mg/L). In addition, the “Candida MIC, C. albicans” value with Candida albicans is recorded as 2 (A grade of 2 represents an MIC of from 1 to 10 mg/L). The “Candida MIC, C. glabrata” value in the assay with Candida glabrata is reported as 3 (A grade of 3 represents an MIC of less than 1 mg/L). The “Candida MIC, C. krusei” value in the assay on Candida krusei is reported as 3 (A grade of 3 represents an MIC of less than 1 mg/L). In addition, in the assay on Candida parapsilosis, the “Candida MIC, C. parapsilosis” value was 3 (A grade of 3 represents an MIC of less than 1 mg/L). In the assay with Candida tropicalis, the “Candida MIC, C. tropicalis” value was 3 (A grade of 3 represents an MIC of less than 1 mg/L).

`COCn1ccc(-c2ccccc2)c1C(=O)C(=O)Nc1ccc(N2CCN(c3cc(C)cc(C)n3)CC2)cc1` [Example 63, N-{4-[4-(4,6-Dimethyl-pyridin-2-yl)-piperazin-1-yl]-phenyl}-2-(1-methoxymethyl-3-phenyl-1H-pyrrol-2-yl)-2-oxo-acetamide]: the MIC in the assay with Aspergillus flavus [1] was less than 1 µg/mL; in [2], less than 1 µg/mL; in [3], less than 1 µg/mL; with Aspergillus niger [4], 1 to 10 µg/mL (≈ 1.91 to 19.1 µM); in the assay with Aspergillus terreus AT49 [5], less than 1 µg/mL; with Aspergillus terreus AT4 [6], less than 1 µg/mL. Also, the minimum inhibitory concentration (MIC) (in the assay with Aspergillus flavus [7]; in assay [8]; in [9]; in the assay on Aspergillus niger [10]; in the assay with Aspergillus terreus AT49 [11]; with Aspergillus terreus AT4 [12]) was less than 1 µg/mL in each case. Further, the MIC against Candida albicans was 1 to 10 µg/mL (≈ 1.91 to 19.1 µM); with Candida glabrata, less than 1 µg/mL; against Candida krusei it was less than 1 µg/mL; with Candida parapsilosis, less than 1 µg/mL; against Candida tropicalis, less than 1 µg/mL.

Turning to `Cc1cc(C)nc(N2CCN(c3ccc(NC(=O)C(=O)c4cc(-c5ccccc5)cn4CCN(C)C)cc3)CC2)c1` [Example 85, 2-[1-(2-Dimethylamino-ethyl)-4-phenyl-1H-pyrrol-2-yl]-N-{4-[4-(4,6-dimethyl-pyridin-2-yl)-piperazin-1-yl]-phenyl}-2-oxo-acetamide], the MIC with Aspergillus flavus [1] was greater than 10 µg/mL; in [2], greater than 10 µg/mL; in assay [3], greater than 10 µg/mL; in the assay with Aspergillus niger [4] it was 1 to 10 µg/mL (≈ 1.82 to 18.2 µM); in the assay on Aspergillus terreus AT49 [5] it was greater than 10 µg/mL; in the assay with Aspergillus terreus AT4 [6] it was greater than 10 µg/mL. Moreover, the MIC is greater than 10 µg/mL in the assay with Aspergillus flavus [7]; greater than 10 µg/mL in [8]; greater than 10 µg/mL in assay [9]; 1 to 10 µg/mL (≈ 1.82 to 18.2 µM) in the assay on Aspergillus niger [10]; 1 to 10 µg/mL (≈ 1.82 to 18.2 µM) in the assay on Aspergillus terreus AT49 [11]; 1 to 10 µg/mL (≈ 1.82 to 18.2 µM) in the assay with Aspergillus terreus AT4 [12]. For the same compound, the MIC in the assay with Candida albicans, in the assay with Candida glabrata, against Candida krusei, in the assay with Candida parapsilosis and in the assay on Candida tropicalis was 1 to 10 µg/mL (≈ 1.82 to 18.2 µM) each time.

For the compound `COC(=O)Cn1ccc(-c2cccs2)c1C(=O)C(=O)Nc1ccc(N2CCN(c3cc(C)cc(C)n3)CC2)cc1` [Example 87, (2-{4-[4-(4,6-Dimethyl-pyridin-2-yl)-piperazin-1-yl]-phenylaminooxalyl}-3-thiophen-2-yl-pyrrol-1-yl)-acetic acid methyl ester], the “MIC grade, A. flavus” value against Aspergillus flavus [1] and against Aspergillus flavus [7] was 1 (a grade of 1 represents an MIC of greater than 10 mg/L) throughout. The “MIC grade, A. fumigatus 210” value in assay [2] and in [8] was 3 (A grade of 3 represents an MIC of less than 1 mg/L) throughout. Moreover, the “MIC grade, A. fumigatus” value in [3] and in assay [9] was 3 (A grade of 3 represents an MIC of less than 1 mg/L) each time. The “MIC grade, A. niger” value against Aspergillus niger [4] and in the assay with Aspergillus niger [10] was 3 (A grade of 3 represents an MIC of less than 1 mg/L) throughout. In addition, the entries for the “MIC grade, A. terreus 49” value with Aspergillus terreus AT49 [5] and against Aspergillus terreus AT49 [11] were 3 (A grade of 3 represents an MIC of less than 1 mg/L) and 2 (A grade of 2 represents an MIC of from 1 to 10 mg/L), respectively. Further, the “MIC grade, A. terreus” value with Aspergillus terreus AT4 [6] and with Aspergillus terreus AT4 [12] was 2 (A grade of 2 represents an MIC of from 1 to 10 mg/L) each time. In addition, the “Candida MIC, C. albicans” value with Candida albicans was 2 (A grade of 2 represents an MIC of from 1 to 10 mg/L). Moreover, the “Candida MIC, C. glabrata” value with Candida glabrata is reported as 3 (A grade of 3 represents an MIC of less than 1 mg/L). The “Candida MIC, C. krusei” value with Candida krusei is on record as 2 (A grade of 2 represents an MIC of from 1 to 10 mg/L). Also, in the assay with Candida parapsilosis, the “Candida MIC, C. parapsilosis” value is reported as 3 (A grade of 3 represents an MIC of less than 1 mg/L). Besides, the “Candida MIC, C. tropicalis” value with Candida tropicalis is given as 3 (A grade of 3 represents an MIC of less than 1 mg/L).
